In assay [1] the target is T1, Nociceptin receptor (Homo sapiens, UniProt P41146). Description: Displacement of [3H]nociceptin from human recombinant NOP receptor expressed in CHO cell membranes after 60 mins by scintillation counting method. (Displacement assays read how much labelled ligand stays bound in the presence of the test substance.)
The target of assay [2] is T2, Mu-type opioid receptor (Homo sapiens, UniProt P35372). Description: Agonist activity at human recombinant mu opioid receptor expressed in CHO cell membranes at 10 uM after 60 mins by [35S]GTPgammaS binding assay relative to DAMGO. Type of assay: functional.
The target of assay [3] is T3, Kappa-type opioid receptor (Homo sapiens, UniProt P41145). The assay is described as follows: Agonist activity at human recombinant kappa opioid receptor expressed in CHO cell membranes at 10 uM after 60 mins by [35S]GTPgammaS binding assay relative to U69593. Type of assay: functional.
In assay [4] the target is T1, Nociceptin receptor. Description: Agonist activity at human recombinant NOPR receptor expressed in CHO cell membranes at 10 uM after 60 mins by [35S]GTPgammaS binding assay relative to nociceptin. Type of assay: functional.
The target of assay [5] is T2, Mu-type opioid receptor. Description: Displacement of [3H]DAMGO from human recombinant mu opioid receptor expressed in CHO cell membranes after 60 mins by scintillation counting method.
Assay [6] has as its target T3, Kappa-type opioid receptor. Description: Displacement of [3H]U69593 from human recombinant kappa opioid receptor expressed in CHO cell membranes after 60 mins by scintillation counting method.
Assay [7] deals with T4, Delta-type opioid receptor (Homo sapiens, UniProt P41143). The assay is described as follows: Displacement of [3H]Cl-DPDPE from human recombinant delta opioid receptor expressed in CHO cell membranes after 60 mins by scintillation counting method.
In assay [8] the target is T2, Mu-type opioid receptor. Description: Agonist activity at human recombinant mu opioid receptor expressed in CHO cell membranes after 60 mins by [35S]GTPgammaS binding assay. Type of assay: functional. (Binding of GTPγS marks nucleotide exchange on a G protein.)
Assay [9] addresses T2, Mu-type opioid receptor. Description: Agonist activity at human recombinant mu opioid receptor expressed in CHO cell membranes after 60 mins by [35S]GTPgammaS binding assay relative to DAMGO. Type of assay: functional.
Assay [10] deals with T3, Kappa-type opioid receptor. Description: Antagonist activity at human recombinant kappa opioid receptor expressed in CHO cell membranes assessed as inhibition of U69593-induced response after 60 mins by [35S]GTPgammaS binding assay. Type of assay: functional.
The target in assay [11] is T4, Delta-type opioid receptor. Description: Agonist activity at human recombinant delta opioid receptor expressed in CHO cell membranes after 60 mins by [35S]GTPgammaS binding assay. Type of assay: functional.
Assay [12] addresses T4, Delta-type opioid receptor. The assay is described as follows: Agonist activity at human recombinant delta opioid receptor expressed in CHO cell membranes after 60 mins by [35S]GTPgammaS binding assay relative to DPDPE. Type of assay: functional.
For assay [13], the species on record is Homo sapiens. The assay is described as follows: Selectivity for human recombinant delta opioid receptor over human mu opioid receptor.
Assay [14] is filed under the species Homo sapiens. The assay is described as follows: Selectivity for human recombinant delta opioid receptor over human kappa opioid receptor.
Assay [15] deals with T3, Kappa-type opioid receptor. The assay is described as follows: Agonist activity at human recombinant kappa opioid receptor expressed in CHO cell membranes after 60 mins by [35S]GTPgammaS binding assay. Type of assay: functional.
Assay [16] has as its target T3, Kappa-type opioid receptor. Description: Agonist activity at human recombinant kappa opioid receptor expressed in CHO cell membranes after 60 mins by [35S]GTPgammaS binding assay relative to U69593. Type of assay: functional.
Assay [17] addresses T2, Mu-type opioid receptor. Description: Antagonist activity at human recombinant mu opioid receptor expressed in CHO cell membranes assessed as inhibition of DAMGO-induced response after 60 mins by [35S]GTPgammaS binding assay. Type of assay: functional.
In assay [18] the target is T4, Delta-type opioid receptor. Description: Antagonist activity at human recombinant delta opioid receptor expressed in CHO cell membranes assessed as inhibition of DPDPE-induced response after 60 mins by [35S]GTPgammaS binding assay. Type of assay: functional.
The species entered for assay [19] is Homo sapiens. The assay is described as follows: Selectivity for human recombinant mu opioid receptor over human delta opioid receptor.
For assay [20], the species on record is Homo sapiens. The assay is described as follows: Selectivity for human recombinant mu opioid receptor over human kappa opioid receptor.

Data on 19 compounds can be found in ChEMBL document CHEMBL3352469, “Pyrrolo- and pyridomorphinans: non-selective opioid antagonists and delta opioid agonists/mu opioid partial agonists” (Bioorg Med Chem, 2014).

T1 sequence (P41146 whole entry): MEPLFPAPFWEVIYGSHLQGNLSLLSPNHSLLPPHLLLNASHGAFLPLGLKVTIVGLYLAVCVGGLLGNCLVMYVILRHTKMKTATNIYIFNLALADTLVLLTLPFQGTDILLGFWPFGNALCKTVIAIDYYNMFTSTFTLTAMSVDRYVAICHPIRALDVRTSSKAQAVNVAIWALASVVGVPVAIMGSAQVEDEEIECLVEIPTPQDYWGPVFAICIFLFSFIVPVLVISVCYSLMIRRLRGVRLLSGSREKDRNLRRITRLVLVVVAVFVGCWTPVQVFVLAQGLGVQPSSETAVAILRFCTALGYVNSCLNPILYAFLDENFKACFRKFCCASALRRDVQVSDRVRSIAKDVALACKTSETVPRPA
T4 sequence (P41143 whole entry): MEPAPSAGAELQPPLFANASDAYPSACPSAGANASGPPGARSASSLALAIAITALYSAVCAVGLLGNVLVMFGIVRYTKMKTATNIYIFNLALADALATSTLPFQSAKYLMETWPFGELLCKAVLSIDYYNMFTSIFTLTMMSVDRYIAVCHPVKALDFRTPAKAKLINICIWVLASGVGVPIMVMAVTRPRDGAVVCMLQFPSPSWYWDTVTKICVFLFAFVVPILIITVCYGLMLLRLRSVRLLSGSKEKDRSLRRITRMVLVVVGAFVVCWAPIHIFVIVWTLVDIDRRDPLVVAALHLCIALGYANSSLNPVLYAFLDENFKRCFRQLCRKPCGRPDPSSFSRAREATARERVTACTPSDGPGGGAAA
T3 sequence (P41145 whole entry): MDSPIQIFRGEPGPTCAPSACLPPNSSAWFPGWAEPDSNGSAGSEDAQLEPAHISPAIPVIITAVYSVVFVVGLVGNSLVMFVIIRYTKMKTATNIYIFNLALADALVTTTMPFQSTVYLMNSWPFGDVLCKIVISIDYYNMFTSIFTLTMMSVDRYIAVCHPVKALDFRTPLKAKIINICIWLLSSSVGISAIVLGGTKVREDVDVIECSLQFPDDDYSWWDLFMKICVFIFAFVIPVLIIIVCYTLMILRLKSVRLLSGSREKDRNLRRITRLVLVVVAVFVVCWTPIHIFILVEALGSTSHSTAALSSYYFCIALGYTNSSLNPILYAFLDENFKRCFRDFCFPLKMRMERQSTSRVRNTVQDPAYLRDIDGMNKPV
T2 sequence (P35372 whole entry): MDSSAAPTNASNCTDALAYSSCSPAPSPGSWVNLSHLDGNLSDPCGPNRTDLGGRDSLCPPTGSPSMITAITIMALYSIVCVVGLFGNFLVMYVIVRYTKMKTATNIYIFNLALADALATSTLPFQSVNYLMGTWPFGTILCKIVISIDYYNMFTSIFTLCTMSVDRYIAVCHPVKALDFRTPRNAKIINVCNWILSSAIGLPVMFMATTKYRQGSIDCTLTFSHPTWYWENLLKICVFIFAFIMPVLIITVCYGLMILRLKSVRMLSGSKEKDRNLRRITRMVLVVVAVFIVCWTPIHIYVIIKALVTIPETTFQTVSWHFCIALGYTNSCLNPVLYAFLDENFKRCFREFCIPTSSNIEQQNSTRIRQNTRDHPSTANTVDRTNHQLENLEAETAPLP

For `O=C1CCC2=C([C@@H]3Oc4c(O)ccc5c4[C@@]34CCN(CC3CC3)[C@H](C5)[C@]4(O)C2)N1CCc1ccccc1`, the inhibition constant (Ki) (as a rule, a measure of affinity in units of concentration, obtained from inhibition or displacement) on Nociceptin receptor [1] was 1500 nM. Further, the Smax at Mu-type opioid receptor [2] is 1%; in [3] it was -10%; on Nociceptin receptor [4], 5%.

In the case of `CN1CC[C@]23c4c5ccc(O)c4O[C@H]2C2=C(C[C@H](CCO)C(=O)N2Cc2ccccc2)C[C@@]3(O)[C@H]1C5`, the Ki on Mu-type opioid receptor [5] is 3 nM; in assay [6], 15.6 nM; in assay [7], 2.85 nM. In addition, the concentration for a half-maximal effect (EC50) – broadly, the midpoint of the concentration-response curve – was 94.9 nM on Mu-type opioid receptor [8] and 10.6 nM in assay [11]. Also, the Activity at Mu-type opioid receptor [9] worked out at 36%; in [12] it was 68%. In addition, the Ke in assay [10] was determined as 16.8 nM.

With `Cc1[nH]c2c(c1Cc1ccccc1)C[C@@]1(O)[C@H]3Cc4ccc(O)c5c4[C@@]1(CCN3CC1CC1)[C@H]2O5`, the Selectivity ratio in the assay listed under Homo sapiens [13] and in the assay listed under Homo sapiens [14] was 40 each time.

Consider `C=CCN1CC[C@]23c4c5ccc(O)c4O[C@H]2C2=C(CCC(=O)N2CCc2ccccc2)C[C@@]3(O)[C@H]1C5`, for which the Smax at Mu-type opioid receptor [2] was -2%; in assay [3], -15%; on Nociceptin receptor [4], 4%.

Take `CN1C(=O)[C@H](CCO)CC2=C1[C@@H]1Oc3c(O)ccc4c3[C@@]13CCN(C)[C@H](C4)[C@]3(O)C2`: the values for the Ki (at Mu-type opioid receptor [5]; in [6]; in [7]) were 2.37 nM, 48.7 nM and 3.59 nM, respectively. Moreover, the concentration for a half-maximal effect (EC50) at Mu-type opioid receptor [8] came to 163 nM; in assay [11] it was 11.8 nM. The Activity at Mu-type opioid receptor [9] turned out to be 36%; in [12], 66%. Further, in assay [10], the Ke came out at 321 nM.

For the compound `O=C1CCC2=C([C@@H]3Oc4c(O)ccc5c4[C@@]34CCN(CC3CC3)[C@H](C5)[C@]4(O)C2)N1CC1CCCCC1`, the inhibitory constant (Ki) at Mu-type opioid receptor [5] is 0.11 nM; in assay [6] it was 0.33 nM; in assay [7], 0.28 nM; at Nociceptin receptor [1] it was 880 nM. Besides, the Smax at Mu-type opioid receptor [2] was -1%; in [3] it was -5%; on Nociceptin receptor [4], 5%.

In the case of `CCOC(=O)Cc1c2c(n(Cc3ccccc3)c1O)[C@@H]1Oc3c(O)ccc4c3[C@@]13CCN(C)[C@H](C4)[C@]3(O)C2`, the inhibition constant (Ki) was determined as 13.2 nM at Mu-type opioid receptor [5], 159 nM in assay [6] and 82.1 nM in assay [7]. The concentration giving a half-maximal response (EC50) at Mu-type opioid receptor [8] stood at 70.5 nM; in assay [15] it was 434 nM; in [11], 42.5 nM. Further, the Activity came out at 86% on Mu-type opioid receptor [9], 23% in assay [16] and 74% in assay [12].

Regarding `CN1C(=O)[C@@H](CCO)CC2=C1[C@@H]1Oc3c(O)ccc4c3[C@@]13CCN(C)[C@H](C4)[C@]3(O)C2`, the figures for the Ki (at Mu-type opioid receptor [5]; in assay [6]; in [7]) were 12.8 nM, 182 nM and 9.25 nM, respectively. The concentration for a half-maximal effect (EC50) at Mu-type opioid receptor [8] worked out at 709 nM; in [11], 30.6 nM. Also, the Activity on Mu-type opioid receptor [9] worked out at 37%; in assay [12], 80%. The Ke in [10] came out at 2140 nM.

Consider `O=C1CCC2=C([C@@H]3Oc4c(O)ccc5c4[C@@]34CCN(CC3CC3)[C@H](C5)[C@]4(O)C2)N1Cc1cccc(Cl)c1`, for which the values for the Smax (at Mu-type opioid receptor [2]; in [3]; at Nociceptin receptor [4]) were -1%, -11% and 7%, respectively.

With `O=C1[C@@H](CCO)CC2=C([C@@H]3Oc4c(O)ccc5c4[C@@]34CCN(CC3CC3)[C@H](C5)[C@]4(O)C2)N1Cc1ccccc1`, the figures for the Ki (on Mu-type opioid receptor [5]; in assay [6]; in assay [7]) were 1.54 nM, 2.76 nM and 2.38 nM, respectively. In addition, the Ke at Mu-type opioid receptor [17] came to 1.62 nM; in [10] it was 2.22 nM; in [18] it was 0.93 nM.

Take `C[C@@H]1CC2=C([C@@H]3Oc4c(O)ccc5c4[C@@]34CCN(CC3CC3)[C@H](C5)[C@]4(O)C2)N(Cc2ccccc2)C1=O`: the Ki at Mu-type opioid receptor [5] turned out to be 0.56 nM; in [6] it was 0.95 nM; in [7], 0.85 nM. Further, the Ke at Mu-type opioid receptor [17] was determined as 0.5 nM; in assay [10], 0.23 nM; in assay [18], 0.23 nM.

Consider `CN1CC[C@]23c4c5ccc(O)c4O[C@H]2C2=C(CCC(=O)N2Cc2ccccc2)C[C@@]3(O)[C@H]1C5`, for which the values for the inhibition constant Ki (on Mu-type opioid receptor [5]; in [6]; in assay [7]) were 0.29 nM, 1.98 nM and 0.92 nM, respectively. The half-maximal effective concentration (EC50) at Mu-type opioid receptor [8] amounted to 4.97 nM; in assay [11] it was 3 nM. The Activity at Mu-type opioid receptor [9] amounted to 52%. Further, the Ke in assay [10] came out at 21.3 nM. Also, the Ratio Ki in the assay filed under Homo sapiens [19] and in the assay listed under Homo sapiens [20] was 3 in each case.

In the case of `CCOC(=O)Cc1c2c(n(Cc3ccccc3)c1O)[C@@H]1Oc3c(O)ccc4c3[C@@]13CCN(CC1CC1)[C@H](C4)[C@]3(O)C2`, the Ki at Mu-type opioid receptor [5] amounted to 8.65 nM; in [6] it was 4.79 nM; in assay [7], 10 nM. For the same compound, the Ke came to 6.61 nM on Mu-type opioid receptor [17] and 6.79 nM in [18].

On to `CN1C(=O)CCC2=C1[C@@H]1Oc3c(O)ccc4c3[C@@]13CCN(C)[C@H](C4)[C@]3(O)C2`, for which the Ki at Mu-type opioid receptor [5] came out at 1.23 nM; in assay [6], 20.4 nM; in assay [7] it was 9.39 nM. The figures for the EC50 (on Mu-type opioid receptor [8]; in assay [11]) were 80 nM and 25.5 nM, respectively. Besides, the Activity was 40% on Mu-type opioid receptor [9] and 67% in [12].

As for `CN1CC[C@]23c4c5ccc(O)c4O[C@H]2C2=C(C[C@@H](CCO)C(=O)N2Cc2ccccc2)C[C@@]3(O)[C@H]1C5`, the Ki worked out at 2.03 nM at Mu-type opioid receptor [5], 4.68 nM in assay [6] and 1.02 nM in assay [7]. Moreover, the Ke on Mu-type opioid receptor [17] came to 32.9 nM; in assay [10] it was 29.3 nM. The EC50 in [11] came out at 2.37 nM. For the same compound, the Activity in [12] is 73%.

Regarding `O=C1CCC2=C([C@@H]3Oc4c(O)ccc5c4[C@@]34CCN(CC3CC3)[C@H](C5)[C@]4(O)C2)N1Cc1cccc(F)c1`, the Smax is -1% on Mu-type opioid receptor [2], -9% in assay [3] and 7% on Nociceptin receptor [4].

Take `O=C1CCC2=C([C@@H]3Oc4c(O)ccc5c4[C@@]34CCN(CC3CC3)[C@H](C5)[C@]4(O)C2)N1Cc1ccccc1`: the Ki stood at 0.18 nM on Mu-type opioid receptor [5], 0.15 nM in [6], 0.36 nM in [7] and 1300 nM on Nociceptin receptor [1]. Moreover, the values for the Smax (on Mu-type opioid receptor [2]; in assay [3]; at Nociceptin receptor [4]) were -1%, -20% and 12%, respectively.

With `O=C1[C@H](CCO)CC2=C([C@@H]3Oc4c(O)ccc5c4[C@@]34CCN(CC3CC3)[C@H](C5)[C@]4(O)C2)N1Cc1ccccc1`, the figures for the Ki (at Mu-type opioid receptor [5]; in assay [6]; in assay [7]) were 0.43 nM, 1.29 nM and 0.7 nM, respectively. In addition, the Ke turned out to be 0.35 nM on Mu-type opioid receptor [17], 0.73 nM in assay [10] and 0.47 nM in assay [18].

With `C[C@H]1CC2=C([C@@H]3Oc4c(O)ccc5c4[C@@]34CCN(CC3CC3)[C@H](C5)[C@]4(O)C2)N(Cc2ccccc2)C1=O`, the Ki at Mu-type opioid receptor [5] is 0.42 nM; in [6] it was 0.71 nM; in assay [7] it was 1.58 nM. Further, the values for the Ke (at Mu-type opioid receptor [17]; in [10]; in assay [18]) were 0.6 nM, 2.03 nM and 0.57 nM, respectively.
